# Assay results reported in ChEMBL document CHEMBL3046487, “Preparation and root growth-modulatory activity of N-substituted 2-acetylamino-2-ethoxycarbonyl-3-(2-furyl)propanamides” (2001).
# Legend:
# Assay type in all cases: functional
# Allium tuberosum [1] = assay: Root growth inhibition of Allium tuberosum seedling at 1 x 10^-3 M after 10 days by agar dilution method relative to control; conditions: 240 h, read-out: GI
# [2] = system: Brassica rapa subsp. oleifera; assay: Root growth inhibition of Brassica rapa subsp. oleifera seedling at 1 x 10^-3 M after 7 days by agar dilution method relative to control; conditions: 168 h, read-out: GI
# Allium tuberosum [3] = assay: Root growth inhibition of Allium tuberosum seedling at 5 x 10^-5 M after 10 days by agar dilution method relative to control; conditions: 240 h, read-out: GI
# [4] = system: Brassica rapa subsp. oleifera; assay: Root growth inhibition of Brassica rapa subsp. oleifera seedling at 1 x 10^-4 M after 7 days by agar dilution method relative to control; conditions: 168 h, read-out: GI
# Allium tuberosum [5] = assay: Root growth inhibition of Allium tuberosum seedling at 5 x 10^-4 M after 10 days by agar dilution method relative to control; conditions: 240 h, read-out: GI
# [6] = system: Brassica rapa subsp. oleifera; assay: Root growth inhibition of Brassica rapa subsp. oleifera seedling at 5 x 10^-5 M after 7 days by agar dilution method relative to control; conditions: 168 h, read-out: GI
# [7] = system: Brassica rapa subsp. oleifera; assay: Root growth inhibition of Brassica rapa subsp. oleifera seedling at 5 x 10^-4 M after 7 days by agar dilution method relative to control; conditions: 168 h, read-out: GI
# Allium tuberosum [8] = assay: Root growth inhibition of Allium tuberosum seedling at 1 x 10^-4 M after 10 days by agar dilution method relative to control; conditions: 240 h, read-out: GI
# Allium tuberosum [9] = assay: Root growth promotion of Allium tuberosum seedling at 1 x 10^-3 M after 10 days by agar dilution method relative to control; conditions: 240 h, read-out: GI
Structure (SMILES),inhibition of growth at 1000 µM (Allium tuberosum [1]) [%],inhibition of growth at 1000 µM [2] [%],inhibition of growth at 50 µM (Allium tuberosum [3]) [%],inhibition of growth at 100 µM [4] [%],inhibition of growth at 500 µM (Allium tuberosum [5]) [%],inhibition of growth at 50 µM [6] [%],inhibition of growth at 500 µM [7] [%],inhibition of growth at 100 µM (Allium tuberosum [8]) [%],inhibition of growth at 1000 µM (Allium tuberosum [9]) [%]
CCOC(=O)C(Cc1ccco1)(NC(C)=O)C(=O)OCC,4,26,–,–,–,–,–,–,–
CCOC(=O)C(Cc1ccco1)(NC(C)=O)C(=O)Nc1ncc([N+](=O)[O-])s1 (racemic),54,94,–,–,–,–,–,–,–
"O=C(O)COc1ccc(Cl)cc1Cl [2,4-DICHLOROPHENOXYACETIC ACID]",100,100,97,98,100,98,99,99,–
CCOC(=O)C(Cc1ccco1)(NC(C)=O)C(=O)Nc1ccc(Cl)cc1 (racemic),–,49,–,–,–,–,–,–,14
CCOC(=O)C(Cc1ccco1)(NC(C)=O)C(=O)Nc1nccs1 (racemic),29,53,–,–,–,–,–,–,–
CCOC(=O)C(Cc1ccco1)(NC(C)=O)C(=O)Nc1ncc(C)s1 (racemic),42,61,–,–,–,–,–,–,–
CCOC(=O)C(Cc1ccco1)(NC(C)=O)C(=O)NCc1ccco1 (racemic),–,13,–,–,–,–,–,–,36
CCOC(=O)C(Cc1ccco1)(NC(C)=O)C(=O)Nc1ncc(Br)s1 (racemic),56,100,30,80,53,21,98,50,–
CCOC(=O)C(Cc1ccco1)(NC(C)=O)C(=O)Nc1ccccc1 (racemic),7,3,–,–,–,–,–,–,–
CCOC(=O)C(Cc1ccco1)(NC(C)=O)C(=O)O (configuration not stated),47,66,–,–,–,–,–,–,–
CCOC(=O)C(Cc1ccco1)(NC(C)=O)C(=O)Nc1nc2c(Cl)cccc2s1 (racemic),70,100,10,50,50,41,91,10,–
CCCCNC(=O)C(Cc1ccco1)(NC(C)=O)C(=O)OCC (racemic),4,9,–,–,–,–,–,–,–
